Assay results as given in ChEMBL document CHEMBL6134835, “Rezatapopt (PC14586): A First-in-Class Small Molecule p53 Y220C Mutant Protein Stabilizer in Clinical Trials” (J Med Chem, 2025).

Experiments:
[1] = tested on: Cellular tumor antigen p53 (Homo sapiens), P04637 [Y220C]; assay: Reactivation of N-terminal 6xHis-tagged recombinant p53 Y220C mutant (94 to 292 residues) (unknown origin) protein assessed as stabilization of Protein/DNA complex measuring substrate concentration required to increase DNA binding incubated for 48 mins by TR-FRET assay
[2] = Cmax in C57BL/6 mouse at 50 mg/kg, po measured for 24 hrs by LC-MS/MS analysis; format: ADME, organism-based; conditions: in vivo
[3] = tested on: NUGC-3; assay: Antitumor activity against human NUGC-3 cells xenografted in female Balb/c nude mouse assessed as tumor growth inhibition at 25 mg/kg, po relative to control; format: functional; conditions: read-out: TGI
[4] = tested on: NUGC-3; assay: Antitumor activity against human NUGC-3 cells xenografted in female Balb/c nude mouse assessed as tumor growth inhibition at 50 mg/kg, po relative to control; format: functional; conditions: read-out: TGI
[5] = AUC (0 to last) in C57BL/6 mouse at 50 mg/kg, po measured for 24 hrs by LC-MS/MS analysis; format: ADME, organism-based; conditions: in vivo

| Compound | EC1.5 [1] [µM] | Cmax [2] [ng/mL] | AUC(0-t) at 24 h [5] [µg·h/mL] | inhibition in vivo at 25 mg/kg [3] [%] | inhibition in vivo at 50 mg/kg [4] [%] |
| --- | --- | --- | --- | --- | --- |
| CN1CCC(Nc2cccc3c2cc(C#CCNc2ccc(C(C)(C)C#N)nc2)n3CC(F)(F)F)CC1 | 0.054 | – | – | – | – |
| CCN(CC)C1CCN(Cc2cc(C#CCNc3ccccc3)cc(I)c2O)CC1 | 1.6 | – | – | – | – |

Further lines, with some results ahead:

| EC1.5 [1] [µM] | Cmax [2] [ng/mL] | AUC(0-t) at 24 h [5] [µg·h/mL] | Compound | inhibition in vivo at 25 mg/kg [3] [%] | inhibition in vivo at 50 mg/kg [4] [%] |
| --- | --- | --- | --- | --- | --- |
| 0.009 | 16600 | 163 | CNC(=O)c1ccc(NCC#Cc2cc3c(N[C@@H]4CCN(C)C[C@@H]4F)cccc3n2CC(F)(F)F)c(OC)c1 [REZATAPOPT] | 33 | 71 |
| 13.6 | – | – | CCn1c(C#CCNc2ccccc2)cc2cc(CNC)ccc21 | – | – |
| 37.2 | – | – | CCn1c2ccccc2c2cc(CNC)ccc21 | – | – |
